Assay results reported in patent US20260262643A1, “HERBICIDAL BENZOXAZINES” (FMC CORPORATION, priority 2022, published 2026).

Assays:
[1] = test system: barnyardgrass; test: Test C preemergence; format: in vivo, Echinochloa crusgalli
Summary of the method: (§1)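 Greenhouse herbicide screen, 10-day duration. Test chemicals in solvent/surfactant blend were sprayed onto soil at sowing (pre) or onto 2–10 cm seedlings at one to two leaves (post); injury scored visually against controls, 0 no effect to 100 complete control.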

[2] = test system: blackgrass; test: Test C preemergence; format: in vivo, Alopecurus myosuroides
Summary of the method: as §1

[3] = test system: corn; test: Test C preemergence; format: in vivo, Zea mays
Summary of the method: as §1

[4] = test system: green foxtail; test: Test C preemergence; format: in vivo, Setaria viridis
Summary of the method: as §1

[5] = test system: kochia; test: Test C preemergence; format: in vivo, Bassia scoparia
Summary of the method: as §1

[6] = test system: oat, wild; test: Test C preemergence; format: in vivo, Avena fatua
Summary of the method: as §1

[7] = test system: pigweed, palmer; test: Test C preemergence; format: in vivo, Amaranthus palmeri
Summary of the method: as §1

[8] = test system: ragweed; test: Test C preemergence; format: in vivo, Ambrosia artemisiifolia
Summary of the method: as §1

[9] = test system: ryegrass, Italian; test: Test C preemergence; format: in vivo, Lolium multiflorum
Summary of the method: as §1

[10] = test system: soybean; test: Test C preemergence; format: in vivo, Glycine max
Summary of the method: as §1

[11] = test system: wheat; test: Test C preemergence; format: in vivo, Triticum aestivum
Summary of the method: as §1

[12] = test system: barnyardgrass; test: Test C postemergence; format: in vivo, Echinochloa crusgalli; details: 10 days, 0 to 100 scale (0 no effect, 100 complete control)
Summary of the method: as §1

[13] = test system: blackgrass; test: Test C postemergence; format: in vivo, Alopecurus myosuroides; details: Alopecurus myosuroides, post-emergence, 240 h, 10 days, 0 to 100 scale (0 no effect, 100 complete control), read-out: Plant response rating, Blackgrass
Summary of the method: as §1

[14] = test system: corn; test: Test C postemergence; format: in vivo, Zea mays; details: Zea mays, post-emergence, 240 h, 10 days, 0 to 100 scale (0 no effect, 100 complete control)
Summary of the method: as §1

[15] = test system: green foxtail; test: Test C postemergence; format: in vivo, Setaria viridis; details: 10 days, 0 to 100 scale (0 no effect, 100 complete control)
Summary of the method: as §1

[16] = test system: kochia; test: Test C postemergence; format: in vivo, Bassia scoparia; details: 10 days, 0 to 100 scale (0 no effect, 100 complete control)
Summary of the method: as §1

[17] = test system: oat, wild; test: Test C postemergence; format: in vivo, Avena fatua; details: 10 days, 0 to 100 scale (0 no effect, 100 complete control)
Summary of the method: as §1

[18] = test system: pigweed, palmer; test: Test C postemergence; format: in vivo, Amaranthus palmeri; details: 10 days, 0 to 100 scale (0 no effect, 100 complete control)
Summary of the method: as §1

[19] = test system: ragweed; test: Test C postemergence; format: in vivo, Ambrosia artemisiifolia; details: 10 days, 0 to 100 scale (0 no effect, 100 complete control)
Summary of the method: as §1

[20] = test system: ryegrass, Italian; test: Test C postemergence; format: in vivo, Lolium multiflorum; details: 10 days, 0 to 100 scale (0 no effect, 100 complete control)
Summary of the method: as §1

[21] = test system: soybean; test: Test C postemergence; format: in vivo, Glycine max; details: 10 days, 0 to 100 scale (0 no effect, 100 complete control)
Summary of the method: as §1

[22] = test system: wheat; test: Test C postemergence; format: in vivo, Triticum aestivum; details: 10 days, 0 to 100 scale (0 no effect, 100 complete control)
Summary of the method: as §1

[23] = test system: galium; test: Test C postemergence; format: in vivo, Galium aparine; details: 10 days, 0 to 100 scale (0 no effect, 100 complete control)
Summary of the method: as §1

[24] = test system: horseweed; test: Test C postemergence; format: in vivo, Erigeron canadensis; details: 10 days, 0 to 100 scale (0 no effect, 100 complete control)
Summary of the method: as §1

[25] = test system: barnyardgrass; test: Test D flooded paddy test; format: in vivo, Echinochloa crus-galli; details: 250 g ai/ha, applied to paddy water, visual rating after 13 to 14 days, scale 0 to 100 (0 no effect, 100 complete control)
Summary of the method: (§2)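 Post-flood water application at the 2-leaf stage; 3 cm flood depth kept constant; visual control rating 0–100 after 13–14 days greenhouse growth.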

[26] = test system: ducksalad; test: Test D flooded paddy test; format: in vivo, Heteranthera limosa; details: 250 g ai/ha, applied to paddy water, visual rating after 13 to 14 days, scale 0 to 100 (0 no effect, 100 complete control)
Summary of the method: as §2

[27] = test system: rice; test: Test D flooded paddy test; format: in vivo, Oryza sativa; details: 250 g ai/ha, applied to paddy water, visual rating after 13 to 14 days, scale 0 to 100 (0 no effect, 100 complete control)
Summary of the method: as §2

[28] = test system: sedge, umbrella; test: Test D flooded paddy test; format: in vivo, Cyperus difformis; details: 250 g ai/ha, applied to paddy water, visual rating after 13 to 14 days, scale 0 to 100 (0 no effect, 100 complete control)
Summary of the method: as §2

[29] = 500 g ai/ha, preemergence, 0 to 100 scale (0 no effect, 100 complete control)
[30] = Preemergence, 125 g ai/ha, 0 to 100 scale, 0 no effect, 100 complete control

Question: What does the source list for `CCOC[C@H]1CN(C(=O)c2cc(-n3cnc(C(C)C)n3)ccc2C)c2cccc(Cl)c2O1` [Compound 340, [(2R)-8-chloro-2-(ethoxymethyl)-2,3-dihydro-1,4-benzoxazin-4-yl]-[5-(3-isopropyl-1,2,4-triazol-1-yl)-2-methyl-phenyl]methanone]?
Answer: Barnyardgrass plant response rating [1, 29]: 100; Plant response rating, Barnyardgrass [1, 30]: 90; Blackgrass plant response rating [2, 29]: 90; Plant response rating, Blackgrass [2, 30]: 50; Corn plant response rating [3, 29]: 40; Plant response rating, Corn [3, 30]: 20; Foxtail, Green plant response rating [4, 29]: 100; Plant response rating, Foxtail, Green [4, 30]: 100; Kochia plant response rating [5, 29]: 100; Plant response rating, Kochia [5, 30]: 90; Oat, Wild plant response rating [6, 29]: 80; Plant response rating, Oat, Wild [6, 30]: 70; Pigweed, Palmer plant response rating [7, 29]: 100; Plant response rating, Pigweed, Palmer [7, 30]: 100; Ragweed plant response rating [8, 29]: 100; Plant response rating, Ragweed [8, 30]: 80; Ryegrass, Italian plant response rating [9, 29]: 100; Plant response rating, Ryegrass, Italian [9, 30]: 90; Soybean plant response rating [10, 29]: 100; Plant response rating, Soybean [10, 30]: 30; Wheat plant response rating [11, 29]: 80; Plant response rating, Wheat [11, 30]: 50; Plant response rating, Barnyardgrass ([12]; 500 g ai/ha, postemergence): 60; Plant response rating, Barnyardgrass ([12]; Postemergence, 125 g ai/ha): 50; pest or weed control at 500 g/ha ([13]; 500 g ai/ha, postemergence): 60%; pest or weed control at 125 g/ha ([13]; Postemergence, 125 g ai/ha): 20%; Corn plant response rating (crop injury, 0 = no effect, 100 = complete kill) at 500 g/ha ([14]; 500 g ai/ha, postemergence): 60%; Corn plant response rating (crop injury, 0 = no effect, 100 = complete kill) at 125 g/ha ([14]; Postemergence, 125 g ai/ha): 60%; Plant response rating, Foxtail, Green ([15]; 500 g ai/ha, postemergence): 70; Plant response rating, Foxtail, Green ([15]; Postemergence, 125 g ai/ha): 30; Plant response rating, Kochia ([16]; 500 g ai/ha, postemergence): 90; Plant response rating, Kochia ([16]; Postemergence, 125 g ai/ha): 90; Plant response rating, Oat, Wild ([17]; 500 g ai/ha, postemergence): 20; Plant response rating, Oat, Wild ([17]; Postemergence, 125 g ai/ha): 10; Plant response rating, Pigweed, Palmer ([18]; 500 g ai/ha, postemergence): 100; Plant response rating, Pigweed, Palmer ([18]; Postemergence, 125 g ai/ha): 80; Plant response rating, Ragweed ([19]; 500 g ai/ha, postemergence): 80; Plant response rating, Ragweed ([19]; Postemergence, 125 g ai/ha): 70; Plant response rating, Ryegrass, Italian ([20]; 500 g ai/ha, postemergence): 80; Plant response rating, Ryegrass, Italian ([20]; Postemergence, 125 g ai/ha): 60; Plant response rating, Soybean ([21]; 500 g ai/ha, postemergence): 100; Plant response rating, Soybean ([21]; Postemergence, 125 g ai/ha): 100; Plant response rating, Wheat ([22]; 500 g ai/ha, postemergence): 30; Plant response rating, Wheat ([22]; Postemergence, 125 g ai/ha): 10; Plant response rating, Galium ([23]; 500 g ai/ha, postemergence): 100; Plant response rating, Galium ([23]; Postemergence, 125 g ai/ha): 90; Plant response rating, Horseweed ([24]; 500 g ai/ha, postemergence): 60; Plant response rating, Horseweed ([24]; Postemergence, 125 g ai/ha): 30; Plant response rating, Barnyardgrass (Flood) [25]: 0; Plant response rating, Ducksalad (Flood) [26]: 75; Plant response rating, Rice (Flood) [27]: 0; Plant response rating, Sedge, Umbrella (Flood) [28]: 60
